Columns and labels:
[1] = tested on: S. aureus mastitis (Newbould 305); assay: r-BoIL-2 formulated in poloxamer 407 NF as a therapeutic for S. aureus mastitis (Example 6); type: in vivo, Holstein-Fresian dairy cattle
Method: This experiment compares r-BoIL-2 formulated in poloxamer 407 NF, against CEFA-LAK® (cephapirin in a commercial formulation), Na cephapirin (in PBS) and r-BoIL-2 in combination with Na cephapirin (in PBS) as potential therapeutics for S. aureus mastitis. The study employs the following materials: recombinant bovine interleukin-2 (r-BOIL-2, Immunex Corporation, Seattle, Wash.); CEFA-LAK® (200 mg cephapirin as cephapirin sodium in a commercially packaged dose, Bristol-Meyers, Evansville, Ind.); 200 mg Na cephapirin dissolved in 10.0 mL sterile saline; PLURONIC® ACID F127 (poloxamer 407 NF, BASF Corporation, Parsippany, N.J.).
The treatment of Holstein-Fresian dairy cattle is run over three days. There are four treatment groups as follows:
Treatment 1=2 infusions consisting of 200 mg cephapirin (as CEFA-LAK®),at 0 and 12 hours.
Treatment 2=3 infusions consisting of 10 mg r-BoIL-2/poloxamer 407 NF at 0, 24 and 48 hours.
Treatment 3=3 infusions consisting of 3.3 mg r-BoIL-2 in 10 mL PBS at 0, 24 and 48 hours, followed by 2 infusions of 200 mg Na cephapirin in 10 mL PBS at 0 and 12 hours.
Treatment 4=2 infusions consisting of 200 mg Na cephapirin in 10 mL PBS at 0 and 12 hours.
All mammary glands to be infused have been infected with S. aureus (Newbould 305). Infusions are made into the teat cistern of a milked out mammary gland after the prescribed milking. […]

[2] = tested on: S. aureus; assay: Potentiation of bacteriostatic activity of lysostaphin by vehicles (checkered analysis); type: cell-based, Staphylococcus aureus; conditions: for Vehicle Conc. w/Max. Potentiation (%): with r-lysostaphin; for Character of potentiation: in words (footnotes, text); for Potentiation Index Compared to Lysostaphin: M.I.C. of r-lysostaphin in saline / M.I.C. in formulation with the vehicle
Excerpt: In order to identify the nontoxic formulations for mammalian use, toxicity is employed as a method to eliminate direct bactericidal effects on the S. aureus, as well as potential toxic effects on the target animal. Compounds are formulated with r-lysostaphin at concentrations below toxic effects and compared to the bacteriostatic activity of r-lysostaphin in a saline formulation. Some compounds potentiate r-lysostaphin bacteriostatic activity by as much as 300-1000 fold.
Several surfactants, detergents, oils, emollients and membrane solubilizers are chosen as representative of various classes of compounds which may affect protein activity. These vehicles are then evaluated for toxicity and potentiation of the bacteriostatic effects of r-lysostaphin on S. aureus according to the methods described in the foregoing examples. […] Secondly, the vehicles are subjected to the toxicity test on murine cells in vitro. Viable cells are evaluated by trypan blue exclusion and normalized to an untreated control. Thereafter, dairy cattle are infused through the teat canal with various concentrations of the vehicle to make a determination of the irritation potential after intramammary infusion as a measure of mammalian toxicity. Milk samples are collected after infusion of said vehicles and the somatic cell count is determined. The Stimulation Index equals the post-infusion SCC divided by the pre-infusion SCC. The vehicles showing minimal toxicity to S. aureus and mammalian cells in vitro and in vivo are subsequent candidates for evaluation in the in vivo potentiation trials.
Various vehicle combinations are tested in a standard checkered analysis which simultaneously varies the concentration of both parameters to examine the individual contribution of each. Vehicles are all compared to r-lysostaphin in a saline solution, i.e., the potentiation index. […] Glycerol and triacetin, while only potentiating the activity of r-lysostaphin 6-8 fold, is manifested by bactericidal effects (see above Table IV).

[3] = tested on: Staphylococcus aureus mastitis (Newbould 305); assay: Efficacy of lysostaphin formulated in vehicles as intramammary infusion against Staphylococcus aureus mastitis; type: in vivo, bovine (dairy cows)
Excerpt: This experiment examines the ability of various lysostaphin formulations to eliminate S. aureus infections in the bovine mammary gland and compares the formulations with the testing of lysostaphin in a peanut oil-gel matrix, similar to that used in the commercial product CEFA-LAK®, which is used to treat mastitis in lactating dairy cows.
Lysostaphin is formulated in three vehicles: 15% w/v poloxamer 407 NF, 50% w/v glycerol or 10% w/v triacetin. Lysostaphin is also formulated in a peanut oil-gel matrix. These formulations are infused into the bovine mammary gland and the ability of these combinations to exact a biological response, either by curing the infection or by clearing the mammary gland temporarily of S. aureus, are assessed.
Recombinant lysostaphin is suspended in 10.0 mL of peanut oil vehicle or dissolved in 60.0 mL of appropriate sterile vehicle (sPBS) at a concentration of 10.0 mg/mL or 1.67 mg/mL, respectively. Each of 15% poloxamer 407 NF (PLURONIC® ACID F127, a polyoxyethylene-polyoxypropylene derivative, BASF Corporation, Parsippany, N.J.); 50% glycerol (Sigma Chemical Co., St. Louis, Mo.); and 10% triacetin (glyceryl triacetate, Sigma Chemical Co., St. Louis, Mo.) are prepared in sterile phosphate buffered saline.
Staphylococcus aureus infections of the mammary gland provide an excellent model system for evaluating therapeutic efficacy of a variety of pharmaceutical and biological agents for many infectious diseases of mammals. Therefore, experimental infections are established with S. aureus (strain Newbould 305). All mammary glands to be inoculated are free of pathogens and have individual quarter somatic cell counts (SCC) less than 200,000 cells/mL of milk. Inoculum is prepared from a four-hour culture grown in trypticase soy broth and diluted. Inoculations are made by infusion of 1.0 mL diluted culture containing 90 colony forming units of S. aureus (Newbould 305) into the teat cistern of a milked-out mammary quarter. Quarters which fail to establish an infection after six days from initial inoculation are reinfected.
Prepared in PBS is 50% glycerol and the solution is then sterile filtered (0.45μ). Poloxamer 407 NF is mixed overnight and prepared similarly. A 10% triacetin solution is prepared aseptically in sterile PBS. Appropriate amounts of lysostaphin is added so the final concentration is 1.67 mg/mL. All preparations are in a total volume of 60.0 mL and made the day of the infusion. All solutions are sterile filtered through a 0.45μ filter.
Duration of treatment: 3 consecutive PM milkings
Quarters are randomly assigned to one of six treatment groups. All quarters are infused with the appropriate vehicle (60.0 mL) with or without lysostaphin over three consecutive PM milkings. […]

[4] = tested on: S. aureus; assay: Potentiation of lysostaphin bactericidal activity (minimum bactericidal concentration assay, survival of S. aureus); type: cell-based, Staphylococcus aureus; conditions: 18 h
Method: Preparation of 50% glycerol and 15% poloxamer 407 NF plus lysostaphin is as follows: The lysostaphin stock of 2.5 mg/mL is thawed and filtered through a 0.22μ filter. [formula]
In a similar fashion, triacetin solutions are also prepared.
Mueller-Hinton Broth containing lysostaphin is prepared as above. Penicillin in Mueller-Hinton Broth is prepared to serve as a control. Starting with a frozen 2.5 mg/mL stock solution the penicillin is diluted as follows: 400 μl of 2.5 mg/mL is placed in 600 μl of Mueller-Hinton Broth to yield a 1000 μg/mL solution. Added to 3744 μl of Mueller-Hinton Broth is 256 μl of the 1000 μg/mL solution to yield a 64 μg/mL solution.
Placed in sterile tubes are 2 mL of the vehicle and lysostaphin; Mueller-Hinton Broth plus lysostaphin; and Mueller-Hinton Broth plus penicillin. Serial two-fold dilutions are performed by hand using 1 mL of the appropriate vehicle as the diluent. Lysostaphin and penicillin dilutions range from 64 μg/mL to 0.25 μg/mL. All combinations are done in duplicate. The Staphylococcus aureus is grown for 5 hours in 5 mL of TSB and 0.1 mL is removed and placed in 9.9 mL of saline. Each tube is inoculated with 100 μl of the diluted culture. Plate counts are performed on the inoculum. All tubes are incubated for 18 hours at 37° C. with constant agitation. Following incubation, each dilution of lysostaphin in the vehicles or Mueller-Hinton Broth and penicillin in Mueller-Hinton Broth is diluted in phosphate buffered saline to 10^-2, 10^-4 and 10^-6.
Plated on a TSA with 10% sheep blood is 100 μl of the undilute and of each dilution. The plates are inverted and incubated for 18 hours. Following incubation, the number of colonies on each plate is counted.
The vehicles which inhibit the growth or are moderately bactericidal to S. aureus by themselves are unable to be evaluated using the MIC procedure. For these vehicles a minimum bactericidal concentration assay (MBC) is performed. This assay in conjunction with the previous MIC data distinguish bacteriostatic effects versus bactericidal effects of the vehicles. Various formulations are mixed with lysostaphin at a final concentration of 32 μg/mL. Ten, serial two- or four-fold dilutions of the lysostaphin are performed in the vehicle and each tube inoculated with a 2-6 x's 106 S. aureus CFU's (bacterial colony-forming units). Samples are removed after 18 hours and plated on blood agar plates.

[5] = Toxicosis following r-BoIL-2 and r-BoIL-1 formulated infusions; type: in vivo, dairy cattle; conditions: in words
Excerpt: Daily observations of dairy cattle are made for any signs of toxicosis following the beginning of treatment.

[6] = lysostaphin (or penicillin) 1 μg/mL
[7] = lysostaphin (or penicillin) 4 μg/mL

Molecule: CC(=O)OCC1=C(C(=O)O)N2C(=O)[C@@H](NC(=O)CSc3ccncc3)[C@H]2SC1 [Cephapirin]
- Response (%) ([1]; CEFA-LAK 200 mg x2, r-BoIL-2/F127 10 mg x3, r-BoIL-2 3.3 mg x3 + cephapirin 200 mg x2, cephapirin 200 mg x2, quarters culture negative at first sampling): 85%
- Cure (%) ([1]; same doses, days eight to fifteen following final treatment): 23.1%

Molecule: CCCCCCCCCC(=O)N(C)C[C@H](O)[C@@H](O)[C@H](O)[C@H](O)CO [Decanoyl-n-methylglucamid]
- Vehicle Conc. w/Max. Potentiation (%) [2]: 0.078%

Molecule: CCCCCCCCCCCCO[C@@H]1O[C@H](CO)[C@@H](O[C@H]2O[C@H](CO)[C@@H](O)[C@H](O)[C@H]2O)[C@H](O)[C@H]1O [Dodecyl B-D-maltosid]
- Vehicle Conc. w/Max. Potentiation (%) [2]: 0.0024%

Molecule: OCC(O)CO [Glycerol]
- % Cures ([3]; 100 mg lysostaphin infusions on three consecutive days): 25%
- Effect on potentiating the in vivo efficacy of lysostaphin ([3]; in words): Neither glycerol nor triacetin (both have a cure rate of 25%) has any significant effect
- Character of potentiation [2]: Potentiates the bactericidal activity of rlysostaphin
- Vehicle Conc. w/Max. Potentiation (%) [2]: 50.0%

Molecule: CCCCCCCC(=O)N(C)C[C@H](O)[C@@H](O)[C@H](O)[C@H](O)CO [Octanoyl-n-methylglucamid]
- Vehicle Conc. w/Max. Potentiation (%) [2]: 0.31%

Molecule: CC1(C)S[C@@H]2[C@H](NC(=O)Cc3ccccc3)C(=O)N2[C@H]1C(=O)O [Penicillin, reference compound]
- Survival of S. aureus CFU (Log 10) in Vehicles ([4]; lysostaphin (or penicillin) 0.5 μg/mL): 4.2 CFU (Log 10)
- Killing of S. aureus (footnote class) [4, 6]: ^3 (Greater than 99.99% killing of S. aureus)
- Survival of S. aureus CFU (Log 10) in Vehicles [4, 6]: 2.5 CFU (Log 10)
- Killing of S. aureus (footnote class) [4, 7]: ^3 (Greater than 99.99% killing of S. aureus)
- Survival of S. aureus CFU (Log 10) in Vehicles [4, 7]: 3.1 CFU (Log 10)
- Survival of S. aureus CFU (Log 10) in Vehicles ([4]; lysostaphin (or penicillin) 8 μg/mL): 0 CFU (Log 10)
- Killing of S. aureus (footnote class) ([4]; penicillin 0.5 μg/mL): ^3 (Greater than 99.99% killing of S. aureus)

Molecule: CC(O)CO (stereo not drawn) [Propylene Glycol]
- Vehicle Conc. w/Max. Potentiation (%) [2]: 0.195%

Molecule: CCCCCCCCCCCCOC1O[C@H](CO)[C@@H](O)[C@H](O)[C@H]1O (stereo partly drawn) [n-Dodecylglucosid]
- Potentiation Index Compared to Lysostaphin [2]: 1025.0
- Character of potentiation [2]: Potentiation is eliminated when diluted fourfold
- Vehicle Conc. w/Max. Potentiation (%) [2]: 0.078%

Molecule: CCCCCCCCOC1O[C@H](CO)[C@@H](O)[C@H](O)[C@H]1O (stereo partly drawn) [n-Octylglucosid]
- Potentiation Index Compared to Lysostaphin [2]: 1.0
- Vehicle Conc. w/Max. Potentiation (%) [2]: 0.039%

B1: r-BoIL-2: recombinant bovine interleukin-2, Immunex Corporation, Seattle, Wash. (protein, UniProt P05016 21-155, looked up)
Interleukin-2: APTSSSTGNTMKEVKSLLLDLQLLLEKVKNPENLKLSRMHTFDFYVPKVNATELKHLKCLLEELKLLEEVLNLAPSKNLNPREIKDSMDNIKRIVLELQGSETRFTCEYDDATVNAVEFLNKWITFCQSIYSTMT
- Observable signs of toxicosis / adverse clinical signs ([5]; compared with PBS carrier): A decrease of adverse clinical signs are observed
- Side effects compared with r-BoIL-2 in PBS ([5]; in polyoxypropylene-polyoxyethylene block copolymer): substantially less detrimental to an animal than infusions of r-BoIL-2 in sterile phosphate buffered saline
